Assay [1] has as its system Telomere G1 (DNA, G4) TAGGGTTAGGGTTAGGGTTAGGG
Nature of the assay: ITC. The note with it: K+ (50 mM KH2PO4-K2HPO4); potassium phosphate buffer pH 7.0, 25 °C, dilute condition without PEG200.

Assay [2] has the same test system. Nature of the assay: CD melting at 288 nm. The note with it: 100 mM KCl, 50 mM Tris-HCl pH 7.4, 4.5 μM compound, 1.5 μM DNA.
Assay [3] deals with c-myc (DNA, G4) TGAGGGTGGGGAGGGTGGGGAA
Nature of the assay: CD melting at 263 nm. The note with it: 5 mM KCl; 50 mM Tris-HCl pH 7.4; 4.5 μM compound, 1.5 μM DNA.

Assay [4] has the same test system. Nature of the assay: ITC. To be noted: K+ (50 mM KH2PO4-K2HPO4); potassium phosphate buffer pH 7.0, 25 °C, dilute condition without PEG200.

For orientation: ΔTm means the shift of the melting midpoint relative to a reference.

The structures appear in SMILES notation.

Turning to `CN1CCCNC(=O)c2cccc(c2)C(=O)NCCCN(C)CCCN2C(=O)c3ccc4c5c(ccc(c35)C2=O)C(=O)N(CCC1)C4=O`, the Ka in assay [1] worked out at 2.2e+06 M⁻¹; in assay [4], 2.4e+06 M⁻¹. For the same compound, the ΔTm in assay [2] (derived from two Tm (79, 65)) is 14 °C; in assay [3], over 15 °C.

In the case of `CN1CCCNC(=O)CCCC(=O)NCCCN(C)CCCN2C(=O)c3ccc4c5c(ccc(c35)C2=O)C(=O)N(CCC1)C4=O`, the Ka came to 3.4e+06 M⁻¹ in assay [1] and 1.1e+06 M⁻¹ in assay [4]. For the same compound, the ΔTm was 5.5 °C in assay [2] (derived from two Tm (70.5, 65)) and over 15 °C in assay [3].

For the compound `CN1CCCNC(=O)CC2(CCCCC2)CC(=O)NCCCN(C)CCCN2C(=O)c3ccc4c5c(ccc(c35)C2=O)C(=O)N(CCC1)C4=O`, the results for the Ka in assay [1] and in assay [4] were 1.5e+06 M⁻¹ and 6.2e+06 M⁻¹, respectively. Also, the ΔTm is 8.5 °C in assay [2] (derived from two Tm (73.5, 65)) and over 15 °C in assay [3].

For the origin of these results see paper PMC7037305 (2020).
